Values quoted from earlier work, collected in patent US9492406B2, “Pharmaceutical composition” (IPCA Laboratories Limited, priority 2012, dated 2016).
Where two headings read alike, the source gives them in different places.

Assays:
[1] = not given; remark: listed apart in the source
[2] = theophylline products of US2008248117

SMILES: O=C1C(O)=C([C@H]2CC[C@H](c3ccc(Cl)cc3)CC2)C(=O)c2ccccc21 [Atovaquone, trans-2-[4-(4-chlorophenyl)cyclohexyl]-3-hydroxy-1,4-naphthoquinone]
- bioavailability (microfluidized microparticles supplied as suspension, with fat diet): 46-48%
- bioavailability (oral non-sized suspension): about 23%
- bioavailability (oral non-sized suspension, under fat fed condition): 46-48%
- bioavailability (tablet formulations): ~12%

SMILES: NC(=O)N1c2ccccc2C=Cc2ccccc21 [Carbamazepine crystals, Carbamazepine]
- Release after 15 min in % ([1]; carbamazepine products of US2008248117, 15 min): 22%
- Release after 30 min in % ([1]; carbamazepine products of US2008248117, 30 min): 53%

SMILES: Cn1c(=O)c2[nH]cnc2n(C)c1=O [Theophylline crystals, Theophylline]
- Release after 15 min in % ([1]; theophylline products of US2008248117, 15 min): 34%
- Release after 30 min in % ([1]; theophylline products of US2008248117, 30 min): 78%
- Resistance to crushing [2]: 140
